Data: PMC9743090, “Induction of Ferroptosis in Glioblastoma and Ovarian Cancers by a New Pyrrole Tubulin Assembly Inhibitor” (Journal of Medicinal Chemistry, 2022)
Values joined by “and” are separate entries in the source; they are usually repeats but may differ in a detail not shown here. Equal values may be shown once.

What was measured:
[1] = system: PARP cleavage in OVCAR-3 cells; test: PARP cleavage by western blot in OVCAR-3 cells; assay type: cell-based, human; settings: immunoblotting
Experimental: Western blotting was performed as previously described[68] by lysing cells in denaturing buffer sodium dodecyl sulfate (SDS)–urea. Extracts were sonicated, their protein quantified, and aliquots were loaded into an SDS–polyacrylamide gel. After electrophoresis, the proteins in the gel were transferred onto a nitrocellulose membrane (cat. no. NBA085C001EA, PerkinElmer), which then was blocked with 5% milk in TBS-T (Tris HCl with 0.1% Tween 20) and incubated with primary antibodies overnight: PARP antibody diluted 1:1000 (cat. no. 9542S CST) and actin antibody diluted 1:10,000 (cat. no. A5441, Sigma Aldrich). The next day, the membrane was extensively washed with TBS-T and incubated with horse radish peroxidase (HRP)-conjugated secondary antibodies diluted in the 5% milk solution. Detection of the HRP signal was performed using ECL (cat. no. K-12045-D50, Advansta).

SKOV-3 = test: In vivo SKOV-3 xenograft, tumor size and tumor tissue analysis; design: species or system BALB/C^nu/nu mice
Experimental: Briefly, all 10 week-old female BALB/C^nu/nu mice (24 mice) were purchased from the Shanghai University of Traditional Chinese Medicine with Institutional Animal Care and Use Committee approval in accordance with institutional guidelines. All mice were randomly divided into four groups. In #1 group (4 mice), 1 × 10^8 cells/mL from U-87 MG at the logarithmic growth phase were harvested and inoculated subcutaneously, followed by intraperitoneal injection of 100 μL of 15 (25 mg/kg) every 2 days. In #2 group (4 mice), 1 × 10^8 cells/mL from U-87 MG at the logarithmic growth phase were harvested and inoculated subcutaneously, followed by intraperitoneal injection of 100 μL of saline every 2 days. In #3 group (4 mice), 1 × 10^8 cells/mL from SKOV-3 at the logarithmic growth phase were harvested and inoculated subcutaneously, followed by intraperitoneal injection of 100 μL 15 (25 mg/kg) every 2 days. In #4 group (4 mice), 1 × 10^8 cells/mL from SKOV-3 at the logarithmic growth phase were harvested and inoculated subcutaneously, followed by intraperitoneal injection of 100 μL of saline every 2 days. After continuous feeding for 40 days, the mice were sacrificed, and the tumors were removed. The tumors were weighed, and the volumes were calculated using the following formula: Tumor volume (cm^3) = (ab^2)/2 (a: the longest axis (cm), b: the shortest axis (cm)).
Briefly, fresh tissues were immersed in 4% paraformaldehyde (Sigma-Aldrich) for fixation at room temperature for 30 min. The tissues were then dehydrated in an ethanol gradient, embedded in paraffin, sectioned (thickness: 6 μm), and immersed in xylene for dewaxing. Tissue sections were blocked with immunohistochemical blocking solution (Beyotime Biotechnology Co., Ltd., Zhejiang, China) at 37 °C for 30 min. The blocking solution was then discarded, and the sections were washed three times at room temperature for 5 min, each with immunohistochemical washing solution (Beyotime Biotechnology). Then, primary antibodies (rabbit anti-GPX4 antibody [EPNCIR144] (ab125066), rabbit anti-ferritin heavy chain antibody [EPR18878] (ab183781), and rabbit anti-Ki67 antibody (ab15580), Abcam, MA, USA) were added and incubated at 37 °C for 45 min. After incubation, the antibody solution was discarded, and the sections were washed three times at room temperature for 5 min each with immunohistochemical washing solution (Beyotime Biotechnology). Then, the secondary antibody (goat anti-rabbit IgG H&L (Alexa Fluor 488), Abcam, MA, USA) was added, and the tissues were incubated at 37 °C for 45 min. After incubation, the antibody solution was discarded, and the sections were washed three times at room temperature for 5 min, each with immunohistochemical washing solution (Beyotime Biotechnology). Finally, immunofluorescence blocking solution (Sigma-Aldrich) was added, and the sections were mounted.
According to the instructions of the RNAprep pure Tissue Kit (TIANGEN Biotech (Beijing) China) Co., Ltd., Beijing, China), to about 20 mg of […] tissue specimen was added 800 μL of lysis solution, and the mixture was ground, homogenized, and centrifuged. To the supernatant, 200 μL of chloroform was added, and the mixture was mixed by inverting and centrifuged at 4 °C at 13,400 × g for 15 min. To the supernatant, two volumes of absolute ethanol were added, mixed by inversion, and centrifuged at 4 °C at 13,400 × g for 30 min. Ethanol precipitation and centrifugation of the supernatant were repeated. The RNA pellet was suspended with 500 μL of 75% ethanol and centrifuged at 13,400 × g at 4 °C for 5 min. The supernatant was discarded, the excess liquid was removed, and the pellet was dissolved in 300 μL of DECP water. One microliter of the RNA solution was used to measure the ratio of A260–A280 (generally 1.8–2.0) to determine the purity and approximate concentration of the RNA. […]

[2] = Metabolic stability in mouse liver microsomes; assay type: in vitro ADME
Experimental: Mouse (Sigma Aldrich, CD-1 male, pooled) and human microsomes (Sigma Aldrich, human, pooled) at 0.5 mg/mL were preincubated with the test compound 15 dissolved in DMSO at 1 μM in phosphate buffer 50 mM, pH 7.4, and 3 mM MgCl2 for 10 min at 37 °C. The reaction was then started by adding the cofactor mixture solution (NADP, glucose-6-phosphate, glucose-6-phosphate dehydrogenase in 2% NaHCO3). Samples were taken at 0, 10, 30, 45, and 60 min and added to acetonitrile to stop the reaction. Samples were then centrifuged, and the supernatant was analyzed by LC–MS/MS to quantify the amount of the compound. A control sample without the cofactor was always added to check the chemical stability of the test compound. […] A fixed concentration of verapamil was added in every sample as an internal standard for LC–MS/MS analyses. The percentage of the area of the test compound remaining at the various incubation times was calculated with respect to the area of the compound at time 0 min.
The rate constant, k (min^–1), derived for the exponential decay equation (peak area/IS vs time), was used to calculate the rate of Cli.
Samples were analyzed under the following conditions: UPLC Waters coupled with an API 3200 triple-quadrupole (ABSciex); eluents, (phase A) 95% water, 5% acetonitrile + 0.1% HCOOH, (phase B) 5% water, 95% acetonitrile + 0.1% HCOOH; flow rate, 0.3 mL/min; column, Gemini-Nx 5 μm C18 110A (50 × 2.00 mm) at 35 °C; injection volume, 10 μL. Source conditions ESI positive: T 400 °C, Gas 1 30, Gas 2 35, CUR 30, IS 5500, CAD 5.

Structure (SMILES): COc1cc(C(=O)c2cn(-c3ncccn3)cc2-c2ccco2)cc(OC)c1OC [Compound 15, (4-(Furan-2-yl)-1-(pyrimidyl-2-yl)-1H-pyrrol-3-yl)(3,4,5-trimethoxyphenyl)methanone]
- concentration from which cleaved PARP increases [1]: ≥ 5 nM
- ATP level in tumor tissue vs control (SKOV-3; 25 mg/kg i.p. every 2 days): significantly lower
- Fe2+ concentration in tumor tissue vs control (SKOV-3; 25 mg/kg i.p. every 2 days): significantly higher
- LPO level in tumor tissue vs control (SKOV-3; 25 mg/kg i.p. every 2 days): appreciably higher
- MDA level in tumor tissue vs control (SKOV-3; 25 mg/kg i.p. every 2 days): appreciably higher
- T-GSH level in tumor tissue vs control (SKOV-3; 25 mg/kg i.p. every 2 days): significantly lower
- lactic acid level in tumor tissue vs control (SKOV-3; 25 mg/kg i.p. every 2 days): appreciably higher
- tumor size (volume and weight) vs saline control (SKOV-3; 25 mg/kg i.p. every 2 days, day 40): significantly smaller
- CD31 expression in tumor tissue vs control (SKOV-3; immunofluorescence staining): significantly lower expression
- FTH1 expression in tumor tissue vs control (SKOV-3; immunofluorescence staining): significantly lower expression
- GPX4 expression in tumor tissue vs control (SKOV-3; immunofluorescence staining): significantly lower expression
- Ki67 expression in tumor tissue vs control (SKOV-3; immunofluorescence staining): significantly lower expression
- Cli ± SD ([2]; MLM 0.5 mg/mL, 1 μM, n = 2): 461 μL/min/mg protein and 461.1 ± 45.5 μL/min/mg protein
- half-life at 1 h, 1 µM ([2]; male, CD-1, mouse, liver microsomes, pH 7.4, MLM 0.5 mg/mL, 1 μM, n = 2, read-out: t1/2 ± SD): 3 ± 0.3 min
- microsomal CLint at 1 μM ([2]; male, CD-1, pH 7.4, mouse liver microsomes, read-out: intrinsic clearance classification): > 66 µL/min/mg
